Laboratory results taken from patent publication US20210000894A1, “Anti-Stress Composition” (MORINAGA MILK INDUSTRY CO., LTD., priority 2018, published 2021).

Test system: social defeat stress-bearing C57BL/6J mice
Experiment: Social defeat stress: escape time (time taken to be bitten 20 times by the male ICR mouse)
Assay type: in vivo
Details: for escape time, average value: C57BL/6J mice, L. helveticus as living cells orally once a day
Protocol: In the present experiment, an experiment of causing a small mouse to experience social defeat by allowing the small mouse to be bitten many times by a large mouse was carried out, and an effect of Lactobacillus helveticus on behavioral changes caused by social defeat stress (decrease in escape behavior, a lethargic state) was investigated. In the present experiment, C57BL/6J mice were used as social defeat stress-bearing mice. In a cage of male and female ICR mice cohabiting for three weeks or longer, only the male parent was left. A C57BL/6J mouse was brought into that cage, and the time taken by the C57BL/6J mouse to be bitten 20 times by the male parent mouse (escape time) was measured. As the escape time increases, it is implied that the C57BL/6J mouse attempts to escape from the ICR mouse, and therefore, it was determined that the social defeat stress is reduced. From two days before the beginning of giving social defeat stress until the end of the behavioral test, the experiment was carried out respectively for mice to which milnacipran was administered (Toledomin tablets; manufactured by Janssen Pharmaceutical K.K.) (positive control), mice to which nothing was administered (vehicle control), and mice to which living bacterial cells of Lactobacillus helveticus NITE BP-01671 were orally administered once a day using a sonde needle.

What does the source list for CCN(CC)C(=O)C1(c2ccccc2)CC1CN (stereo not shown) [milnacipran]?
escape time compared to the vehicle control (in words) (C57BL/6J mice under social defeat stress, summary of Table 1): increased significantly compared to the vehicle control; escape time, average value (Day 1, administered from two days before stress): 24.6 s; escape time, average value (Day 2): 42.9 s; escape time, average value (Day 3): 65.9 s; escape time, average value (Day 4): 63.2 s; escape time, average value (Day 5): 81.0 s; escape time, average value (Day 8): 114.8 s; escape time, average value (Day 9): 159.0 s; escape time, average value (Day 10): 183.2 s; escape time, average value (Day 11): 183.9 s; escape time, average value (Day 12): 143.2 s; escape time, average value (Day 15): 68.7 s; escape time, average value (Day 16): 46.9 s
